In patent US5464616A, “6β-substituted penicillanic acids as beta-lactamase inhibitors” (Synphar Laboratories, Ind., priority 1994, dated 1995):

Assays:
[1] = test system: class C cephalosporinases; conditions: chromosomally encoded inducible cephalosporinases; cited from earlier work
bacteria = conditions: in combination with amoxycillin, ampicillin, piperacillin, respectively; cited from earlier work
Gram-negative bacteria = assay: whole cell bacteria: antibacterial activity of the inhibitors alone and synergy with cephalothin; type: cell-based; conditions: for synergistic activity against Gram-negative bacteria: in combination with cephalothin, whole cell bacteria; for antibacterial activity of the inhibitors themselves: inhibitor alone
[2] = molecular target: T1, cephalosporinase, which was isolated from Enterobacter cloacae (Enterobacter cloacae, UniProt P05364); assay: inhibition of representative cephalosporinase isolated from Enterobacter cloacae; type: biochemical; conditions: read-out: IC50 against representative cephalosporinase
T1 construct: which was isolated from Enterobacter cloacae; endogenous in cells; host or cells: Enterobacter cloacae
T1 sequence (P05364 21-381): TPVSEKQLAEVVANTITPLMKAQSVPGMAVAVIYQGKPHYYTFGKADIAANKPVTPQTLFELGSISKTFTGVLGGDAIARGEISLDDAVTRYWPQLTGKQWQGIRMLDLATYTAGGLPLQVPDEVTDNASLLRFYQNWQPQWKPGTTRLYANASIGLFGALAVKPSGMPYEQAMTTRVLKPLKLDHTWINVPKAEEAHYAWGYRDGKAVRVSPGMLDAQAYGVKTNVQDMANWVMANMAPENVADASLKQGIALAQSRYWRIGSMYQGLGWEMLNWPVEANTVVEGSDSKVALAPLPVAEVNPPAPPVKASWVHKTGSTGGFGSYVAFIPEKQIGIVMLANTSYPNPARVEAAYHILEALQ
Text: […]. Because of such differences in IC50 value against different types of β-lactamases, these inhibitors are regarded as selective cephalosporinase-inhibitors at the low concentration.

C. freundii S40 = assay: MIC of cephalothin alone and in combination with inhibitor, C. freundii S40 (microbroth dilution); type: cell-based; conditions: Citrobacter freundii, cephalothin alone, MHB, 5 × 10^5 cfu/ml, 16 h/35° C.
Experimental: (§1) MIC values of cephalothin in combination with
(§2) β-lactamase inhibitors Ia and Ic.
(§3) Microbroth Dilution Method, MHB; Inoculum, 5 × 10^5 cfu/ml;
(§4) Incubation, 16 h/35° C.;
(§5) *Concentration of inhibitor = 5 mg/ml (fixed).

E. aerogenes S95 = assay: MIC of cephalothin alone and in combination with inhibitor, E. aerogenes S95 (microbroth dilution); type: cell-based; conditions: Klebsiella aerogenes, cephalothin alone, MHB, 5 × 10^5 cfu/ml, 16 h/35° C.
Experimental: as §1, §2, §3, §4, §5

SMILES: CC1(C)[C@H](C(=O)O)N2C(=O)C[C@H]2S1(=O)=O [sulbactam]
- protection of antibiotics from class C cephalosporinases [1]: failed to protect the antibiotics
- enhancement of effectiveness of conventional antibiotics (bacteria): proved to enhance the effectiveness of conventional antibiotics against many bacteria

SMILES: O=C(O)[C@H]1/C(=C/CO)O[C@@H]2CC(=O)N21 [clavulanic acid]
- protection of antibiotics from class C cephalosporinases [1]: failed to protect the antibiotics
- enhancement of effectiveness of conventional antibiotics (bacteria): proved to enhance the effectiveness of conventional antibiotics against many bacteria

SMILES: COC(=O)C(C(=O)N[C@@H]1C(=O)N2[C@@H]1SC(C)(C)[C@@H]2C(=O)O)=C1SCCS1 [Ia, 6β-[(1,3-Dithiolan-2-ylidene)(methoxycarbonyl)acetamido]-2,2-dimethylpenam-3-carboxylic acid]
- synergistic activity against Gram-negative bacteria (Gram-negative bacteria): synergistic activity
- antibacterial activity of the inhibitors themselves (Gram-negative bacteria): no antibacterial activity at the concentration up to 128 mg/ml
- IC50 [2]: 0.61 nM

SMILES: CC(=O)OCC1=C(C(=O)O)N2C(=O)[C@@H](NC(=O)Cc3cccs3)[C@H]2SC1 [Cephalothin]
- MIC (C. freundii S40): 256 µg/mL
- MIC (E. aerogenes S95): > 256 µg/mL

SMILES: CCOC(=O)C(C(=O)N[C@@H]1C(=O)N2[C@@H]1SC(C)(C)[C@@H]2C(=O)O)=C1SCCS1 [Ib, 6β-[(1,3-Dithiolan-2-ylidene)(ethoxycarbonyl)acetamido]-2,2-dimethylpenam-3-carboxylic acid]
- IC50 [2]: 0.49 nM

SMILES: C=CCOC(=O)C(C(=O)N[C@@H]1C(=O)N2[C@@H]1SC(C)(C)[C@@H]2C(=O)O)=C1SC=CS1 [IIa, 6β-[(Allyloxycarbonyl)(1,3-dithiolen-2-ylidene)acetamido]-2,2-dimethylpenam-3-carboxylic acid]
- IC50 [2]: 7 nM

SMILES: C[C@]1(Cn2ccnn2)[C@H](C(=O)O)N2C(=O)C[C@H]2S1(=O)=O [tazobactam]
- protection of antibiotics from class C cephalosporinases [1]: failed to protect the antibiotics
- enhancement of effectiveness of conventional antibiotics (bacteria): proved to enhance the effectiveness of conventional antibiotics against many bacteria

SMILES: CCOC(=O)C(C(=O)N[C@@H]1C(=O)N2[C@@H](C(=O)O)C(C)(C)S(=O)(=O)[C@H]12)=C1SCCS1 [Id, 6β-[(1,3-Dithiolan-2-ylidene)(ethoxycarbonyl)acetamido]-2,2-dimethylpenam-3-carboxylic acid 1,1-dioxide]
- IC50 [2]: 150 nM

SMILES: CC1(C)S[C@@H]2[C@H](NC(=O)C(C(=O)O)=C3SCCS3)C(=O)N2[C@H]1C(=O)O [Ic, Disodium 6β-[carboxylato(1,3-dithiolan-2-ylidene)acetamido]-2,2-dimethylpenam-3-carboxylate]
- synergistic activity against Gram-negative bacteria (Gram-negative bacteria): synergistic activity
- antibacterial activity of the inhibitors themselves (Gram-negative bacteria): no antibacterial activity at the concentration up to 128 mg/ml
- IC50 [2]: 9.1 nM
